Assay results as given in patent US11382871B2 (BRIU GmbH, priority 2012, dated 2022).
Read-outs that look alike come from different tables or passages of the source.

Columns and labels:
[1] = cited from earlier work; for Solubility: solvents as named in the cell, in water, hexane, ether
IKK = details: cited from earlier work
[2] = compared with curcumin; cited from earlier work
cell death = details: compared with curcumin; cited from earlier work
tumor = details: compared with Cisplatin; cited from earlier work
[3] = compared with curcumin; cited from earlier work; remark: listed apart in the source
[4] = compared with Cisplatin; cited from earlier work
plasma protein = test: Behaviour of curcumin in the blood stream (plasma protein binding); assay type: in vitro ADME; details: higher physiological pH of blood
Text: Since the hydroxyl groups are present in undissociated form when the pH is acidic, the curcuminoids' stability is greater in this environment.

SMILES: O=C(/C=C/c1ccc(O)cc1)CC(=O)/C=C/c1ccc(O)cc1 [Bisdemethoxy-CUR, Bis-4-hydroxycinnamoyl methane]
- Solubility [1]: Insoluble in water, hexane, ether;

SMILES: COc1cc(/C=C/C(=O)CC(=O)/C=C/c2ccc(O)cc2)ccc1O [Demethoxy-CUR, 4-Hydroxycinnamoyl feruloyl methane]
- Solubility [1]: Insoluble in water, hexane, ether;

SMILES: Cl.O=C1/C(=C/c2ccccc2F)CNC/C1=C\c1ccccc1F [EF-24]
- IKK inhibition (IKK): IKK inhibitor
- Potency relative to curcumin [2]: more potent than curcumin
- Potency in inducing cell death relative to curcumin (cell death): 10 times
- Effectiveness in anti-tumor screening (tumor): more effective than Cisplatin
- Bioavailability [3]: considerably higher bioavailability
- Potential of inducing adverse effects [4]: significantly lower potential of inducing adverse effects

SMILES: COc1cc(/C=C/C(=O)CC(=O)/C=C/c2ccc(O)c(OC)c2)ccc1O [curcumin, Diferuloylmethane]
- Plasma protein binding on entering the blood stream (plasma protein): binds to plasma protein
- Solubility ([1]; listed as CUR): Insoluble in water, hexane, ether;
- Solubility in water ([1]; water): insoluble in water
